According to patent publication US20060188507A1, “Methods for identifying chemotherapeutic resistance in non-hematopoietic tumors” (priority 2005, published 2006):
pIC50: −log10 of the molar value. Where two headings read alike, the source gives them in different places.

Tested on: MCF7/AR cells
Experiment: MTT cytotoxicity assay, siRNA-transfected MCF7/AR cells
Format: cell-based, human
Details: read-out: IC50 Results (MTT)
Experimental: III. MTT Cytotoxicity Assays. 24 hours post-transfection, siRNA transfected cells were seeded into 96-well plates at 3×10^3 cells/well. The cells were incubated for 16-24 hours. A range of concentrations of the indicated cytotoxic drugs was added and incubation was continued for an additional 48 hours. 20 μL of MTT (10 mg/mL) was added to each well and the plates were further incubated at 37° C. for 4 hours. The dye was solubilized with DMSO and absorbance measured at 570 nm using a multiwell plate reader (WALLAC). The results were expressed as the average of duplicate wells using the plate reader's Prism software (GraphPad).
Using the MTT cytotoxicity assay, the IC50 (i.e., the concentration at which 50% of the cells are still viable) of MCF7/AR cells transfected with p16 siRNA for various chemotherapeutic agents was next assessed.

[1] = Homo sapiens, MCF7, MCF7/AR cells transfected with GFP siRNA
[2] = Homo sapiens, MCF7, MCF7/AR cells transfected with P16 siRNA (p16 siRNA I)

Row | SMILES | pIC50 (MCF7/AR cells transfected with GFP siRNA) | pIC50 (MCF7/AR cells transfected with P16 siRNA (p16 siRNA I)) | pIC50 [1] | pIC50 [2]
1 | N.N.[Cl][Pt][Cl] [Cisplatinum, cisplatinum] | 4.66 | 4.71 | – | –
2 | CC(=O)O[C@H]1C(=O)[C@@]2(C)[C@H]([C@H](OC(=O)c3ccccc3)[C@]3(O)C[C@H](OC(=O)[C@H](O)[C@@H](NC(=O)c4ccccc4)c4ccccc4)C(C)=C1C3(C)C)[C@]1(OC(C)=O)CO[C@@H]1C[C@@H]2O [Taxol, taxol] | – | – | 7.63 | 7.90
3 | CC[C@]1(O)C[C@@H]2CN(CCc3c([nH]c4ccccc34)[C@@](C(=O)OC)(c3cc4c(cc3OC)N(C)[C@H]3[C@@](O)(C(=O)OC)[C@H](OC(C)=O)[C@]5(CC)C=CCN6CC[C@]43[C@@H]65)C2)C1 [Vinblastin, vinblastin] | – | – | 8.62 | 8.85
